Measured values published in patent US20050112573A1, “Method of detecting toxic substance” (priority 2001, published 2005).

Test system: yeast genes (level of expressed mRNA)
Assay: DNA chip analysis of expressed mRNA of yeast genes after 2 h culture with a toxic chemical substance
Assay type: cell-based, Saccharomyces cerevisiae S288C
Settings: for The level of expressed mRNA in the presence of chemical substance/ (ratio to absence of chemical substance): stress protein genes, DNA chip
Protocol: Yeast (Saccharomyces cerevtisiae S288C (α SUC2mal mel gap2 CUP1)) were cultured at 25° C. on YPD medium (yeast extract 1%, polypepton 2%, glucose 2%). One of toxic chemical substances was added to the cell at logarithmic growth phase, and the cell was further cultured for two hours. Cell was cultured without any chemical substance in the same condition, and was used as control. Concentrations of the chemical substances were defined to inhibit the growth of the yeast but not lead to death.
After the completion of cultivation, the culture was centrifuged to collect the cells. To the cells, sodium acetate buffer (50 mM sodium acetate, 10 mM EDTA, 1% SDS) was added, and the mixture was shaken at 65° C. for five minutes, followed by returning to room temperature, and obtaining the supernatant, which procedure was repeated two times. To the supernatant, ½ amount of a solution of phenol/chloroform was added, and the mixture was centrifuged to give a supernatant, which was added with an equal amount of chloroform, and the mixture was centrifuged to give a supernatant. To the supernatant, an equal amount of isopropanol containing 0.3 M sodium acetate was added, and the mixture was allowed to stand at room temperature for 30 minutes, after which the mixture was centrifuged to give a sediment of the whole RNAs. Seventy % ethanol was added to the sediment, and the mixture was again centrifuged to give a sediment, which was then dried and dissolved in water. mRNA was isolated from the whole RNAs as followings. In view of the fact that a poly A chain is attached to the 3′ terminus of mRNA, a polynucleotide having a poly T structure which was immobilized on the surface of latex beads was used to trap the mRNA, and then the mRNA was washed and eluted with spine column (Oligotex-dT30<Super>mRNA Purification Kit, Takara). Reverse transcription of the mRNA was conducted with a reverse transcriptase (Super Script II Reverse Transcriptase; catalogue No. 18064-014, GibcoBRL) using fluorescence-labeled nucleotides to give cDNAs that were introduced with Cy3-dUTP or Cy5-dUTP during the reverse transcription.
The labeled cDNAs were dissolved in TE buffer (10 mM Tris-HCl/1 mM EDTA, pH8.0), and the solution was dropped on the DNA chip containing the whole genes of yeast (DNA Chip Research Inc. Japan) so that the cDNAs were hybridized on the DNA chip at 65° C. for over 12 hours. The fluoresces intensity of the DNA chip was read with a scanner, and the ratio relative to the fluorescence intensity resulting from the absence of chemical substance was estimated as the following, which is shown in Tables 1 to 9: [formula]
In the Tables, “Intensity” indicated in the rightmost column is a value of the level of expressed mRNA of each gene in control cells as divided by the average level of the expressions of the whole genes.

## C[S+](C)[O-] [(15), dimethylsulfoxide]
Gene YOR267C
  The level of expressed mRNA in the presence of chemical substance/absence: YOR267C: 1.3
Gene YOR325W
  The level of expressed mRNA in the presence of chemical substance/absence: YOR325W: 0.7
Gene YOR336W
  level of expressed mRNA in the presence of chemical substance/in its absence: 0.6
Gene YOR344C
  level of expressed mRNA in the presence of chemical substance/in its absence: 0.7
Gene YOR347C
  level of expressed mRNA in the presence of chemical substance/in its absence: 2.0
Gene YPL005W
  The level of expressed mRNA in the presence of chemical substance/absence: YPL005W: 1.2
Gene YPL017C
  level of expressed mRNA in the presence of chemical substance/in its absence: 1.0
Gene YPL107W, DNA chip fluorescence ratio to control without chemical, 2 hours culture with chemical, growth-inhibiting non-lethal concentration
  The level of expressed mRNA in the presence of chemical substance / the level in the absence of chemical substance, yeast gene YPL107W: 0.7
Gene YPL138C, DNA chip fluorescence ratio to control without chemical, 2 hours culture with chemical, growth-inhibiting non-lethal concentration
  The level of expressed mRNA in the presence of chemical substance / the level in the absence of chemical substance, yeast gene YPL138C: 2.7
Gene YPL150W
  The level of expressed mRNA in the presence of chemical substance/absence: YPL150W: 1.1
Gene YPL151C
  The level of expressed mRNA in the presence of chemical substance/absence: YPL151C: 1.8
Gene YPL152W
  The level of expressed mRNA in the presence of chemical substance/absence: YPL152W: 2.3
Gene YPL168W
  The level of expressed mRNA in the presence of chemical substance/absence: YPL168W: 0.8
Gene YPL180W
  The level of expressed mRNA in the presence of chemical substance/absence: YPL180W: 0.7
Gene YPL188W
  The level of expressed mRNA in the presence of chemical substance/absence: YPL188W: 0.8
Gene YPL221W
  The level of expressed mRNA in the presence of chemical substance/absence: YPL221W: 1.0
Gene YPL225W
  The level of expressed mRNA in the presence of chemical substance/absence: YPL225W: 0.9
Gene YPL249C
  The level of expressed mRNA in the presence of chemical substance/absence: YPL249C: 1.0
Gene YPL260W
  The level of expressed mRNA in the presence of chemical substance/absence: YPL260W: 1.3
Gene YPL265W
  level of expressed mRNA in the presence of chemical substance/in its absence: 1.2
Gene YPR006C
  level of expressed mRNA in the presence of chemical substance/in its absence: 0.7
Gene YPR026W
  level of expressed mRNA in the presence of chemical substance/in its absence: 3.1
Gene YPR049C
  The level of expressed mRNA in the presence of chemical substance/absence: YPR049C: 1.5
Gene YPR061C
  The level of expressed mRNA in the presence of chemical substance/absence: YPR061C: 0.4
Gene YPR093C
  The level of expressed mRNA in the presence of chemical substance/absence: YPR093C: 0.8
Gene YPR146C
  The level of expressed mRNA in the presence of chemical substance/absence: YPR146C: 0.9
Gene YPR148C
  The level of expressed mRNA in the presence of chemical substance/absence: YPR148C: 1.7
Gene YPR150W
  The level of expressed mRNA in the presence of chemical substance/absence: YPR150W: 0.9
Gene YPR158W
  The level of expressed mRNA in the presence of chemical substance/absence: YPR158W: 0.9
Gene YPR169W
  The level of expressed mRNA in the presence of chemical substance/absence: YPR169W: 0.9
Gene YPR172W
  The level of expressed mRNA in the presence of chemical substance/absence: YPR172W: 1.5
Gene YPR174C
  The level of expressed mRNA in the presence of chemical substance/absence: YPR174C: 1.2
Yeast gene YAR010C
  The level of expressed mRNA in the presence of chemical substance/The level of expressed mRNA in the absence of chemical substance: 1.8
Yeast gene YBL005W-A
  The level of expressed mRNA in the presence of chemical substance/The level of expressed mRNA in the absence of chemical substance: 0.9
Yeast gene YBL038W, mitochondria-located protein genes, 2 h culture with chemical
  The level of expressed mRNA in the presence of chemical substance/ (ratio to absence), gene YBL038W: 0.7
Yeast gene YBL041W
  The level of expressed mRNA in the presence of chemical substance/The level of expressed mRNA in the absence of chemical substance: 1.3
Yeast gene YBL043W
  The level of expressed mRNA in the presence of chemical substance/The level of expressed mRNA in the absence of chemical substance: 1.8
Yeast gene YBL078C
  The level of expressed mRNA in the presence of chemical substance/The level of expressed mRNA in the absence of chemical substance: 2.5
Yeast gene YBL093C
  The level of expressed mRNA in the presence of chemical substance/ (ratio to absence of chemical substance): 0.5
Yeast gene YBR036C, ratio of DNA chip fluorescence intensity to that without chemical substance
  The level of expressed mRNA in the presence of chemical substance/ (in its absence), gene YBR036C: 1.5
Yeast gene YBR044C
  The level of expressed mRNA in the presence of chemical substance/ (ratio to absence of chemical substance): 0.9
Yeast gene YBR122C, mitochondria-located protein genes, 2 h culture with chemical
  The level of expressed mRNA in the presence of chemical substance/ (ratio to absence), gene YBR122C: 0.7
Yeast gene YBR214W
  The level of expressed mRNA in the presence of chemical substance/The level of expressed mRNA in the absence of chemical substance: 5.1
Yeast gene YBR251W, mitochondria-located protein genes, 2 h culture with chemical
  The level of expressed mRNA in the presence of chemical substance/ (ratio to absence), gene YBR251W: 0.8
Yeast gene YBR298C, ratio of DNA chip fluorescence intensity to that without chemical substance
  The level of expressed mRNA in the presence of chemical substance/ (in its absence), gene YBR298C: 0.2
Yeast gene YCL020W
  The level of expressed mRNA in the presence of chemical substance/The level of expressed mRNA in the absence of chemical substance: 2.5
Yeast gene YCL027W
  The level of expressed mRNA in the presence of chemical substance/The level of expressed mRNA in the absence of chemical substance: 3.6
Yeast gene YCR004C
  The level of expressed mRNA in the presence of chemical substance/The level of expressed mRNA in the absence of chemical substance: 0.8
Yeast gene YCR046C, mitochondria-located protein genes, 2 h culture with chemical
  The level of expressed mRNA in the presence of chemical substance/ (ratio to absence), gene YCR046C: 1.4
Yeast gene YCR071C
  The level of expressed mRNA in the presence of chemical substance/The level of expressed mRNA in the absence of chemical substance: 1.1
Yeast gene YCR083W, mitochondria-located protein genes, 2 h culture with chemical
  The level of expressed mRNA in the presence of chemical substance/ (ratio to absence), gene YCR083W: 1.0
Yeast gene YCR083W
  The level of expressed mRNA in the presence of chemical substance/ (ratio to absence of chemical substance): 1.0
Yeast gene YCR088W
  The level of expressed mRNA in the presence of chemical substance/The level of expressed mRNA in the absence of chemical substance: 2.8
Yeast gene YDL008W
  The level of expressed mRNA in the presence of chemical substance/The level of expressed mRNA in the absence of chemical substance: 0.7
Yeast gene YDL067C, energy system protein genes, 2 h culture with the chemical, ratio to control without chemical
  The level of expressed mRNA in the presence of chemical substance/ in its absence, gene YDL067C: 0.7
Yeast gene YDL067C, mitochondria-located protein genes, 2 h culture with chemical
  The level of expressed mRNA in the presence of chemical substance/ (ratio to absence), gene YDL067C: 0.7
Yeast gene YDL078C, energy system protein genes, 2 h culture with the chemical, ratio to control without chemical
  The level of expressed mRNA in the presence of chemical substance/ in its absence, gene YDL078C: 0.5
